According to patent US6727284B2 (priority 1997, dated 2004):
Entries after “also recorded” stand apart in the source; their conditions may differ.

Tests used:
[1] = Plasma DCA levels by HPLC in pediatric patients given bolus plus 24 h infusion after cardiopulmonary bypass; assay type: in vivo, human; details: bolus 100 mg/kg into proximal aorta, then infusion 12.5 mg/kg/hr for 24 hours, therapeutic range 0.2-1 mM, FIG. 1
Experimental: This example describes the use of dichloroacetate administered in a bolus followed by infusion for 24 hrs in pediatric patients after cardiopulmonary bypass.
DCA, in a bolus of 100 mg/kg of 10 mg/ml solution ([…] bolus) is injected into the proximal aorta immediately prior to discontinuing the aortic cross-clamp. Immediately thereafter, an infusion of DCA at 12.5 mg/kg/hr is initiated and run for 24 hours or longer. Based on the pharmacokinetics of DCA, this dosage regiment is designed to continuous maintain plasma levels of DCA in the therapeutic range of [0.2-1 mM]—in contrast to transient therapeutic levels.
Blood samples are collected from the indwelling lines of patients in citrate-containing tubes. These samples are centrifuged to separate the plasma and frozen. The frozen samples are later analyzed for DCA concentration by using a high performance liquid chromatography technique (HPLC). See generally Thannikkuto et al., “Dichloracetate (DCA) stimulates pyruvate dehydrogenase complex (PDC) activity in hearts of patients undergoing coronary artery bypass grafting (CABG)” Can. J. Cardiol. 10(suppl. C):130C (1994). Briefly, the analysis was performed on a lonoSpher A (250×4.6 mm L X ID) column accompanied by a guard column AX. Both of the columns were purchased from Chrompack Canada. The mobile phase used was 10^−3 M pyromellitate buffer (pH 3.8-4.0) at a flow rate of […]. […]

[2] = Side-effects of dichloroacetate in patients; assay type: in vivo, human
From the text: Higher dosages are permitted.

[3] = cited from earlier work

O=C(O)C(Cl)Cl [dichloroacetate]
patient blood (plasma) levels of dichloroacetate [1]: continuously maintained patient blood levels of dichloroacetate in the therapeutic range | patient blood (plasma) levels of dichloroacetate ([1]; listed as dichloro acetate): maintained. at high (and therefore therapeutic) levels over a 24 hour period | side-effects [2]: does not have significant sideeffects; also recorded: some patients experience mild drowsiness | half-life ([3]; in vivo): approximately 40 minutes | time blood levels stay in the therapeutic range ([3]; single bolus administration): less than one hour
